Like-named read-outs stand apart in the source and are kept apart here. Where a SMILES comes first, the peptide text is derived from it.
Legend:
fmr1 knockout mice = assay: Successive alleys test, fmr1 knockout mice; type: in vivo, mouse; conditions: 100 mg/kg i.p. 28 days
Experimental: G-2-MePE was administered at the dose of 100 mg/kg i.p. in 0.1 ml saline, once daily for 28 days. Vehicle-treated animals were injected with 0.1 ml saline daily for 28 days. Thereafter, drug or vehicle treatments were stopped and animals were tested on successive days until all tests were completed. Finally, the animals were sacrificed for determining expression of pAkt and pERK
The successive alleys test was used to assess the effects of G-2-MePE on anxiety in the fmr1 KO mice. The apparatus consists of four successive, increasingly anxiogenic, linearly connected alleys (each succeeding alley is painted a lighter colour, has lower walls and/or is narrower than the previous alley). Animals were placed at the closed end of alley 1, facing the end wall. The latency to first enter each alley, the amount of time spent in each alley, and the number of entries into each alley was recorded during a total test time of 300 s.

[1] = tested on: hippocampus slices from MeCP2 deficient mice; assay: Hippocampal long-term potentiation, fEPSP slope (Example 8); type: in vivo, mouse; conditions: 20 mg/kg/day i.p. week 4 to 9; vs saline
Text: MeCP2 deficient mice have been previously reported to suffer from functional and ultrastructural synaptic dysfunction, significant impairment of hippocampus-dependent memory and hippocampal long-term potentiation (LTP) (Moretti et al. The Journal of Neuroscience. 2006. 26(1):319-327). To test the effects of the G-2-MePE treatment on synaptic function in the RTT model we compared hippocampal LTP in both vehicle and G-2-MePE treated animals at 9 weeks of age. To do so, we measured the slope of the fEPSP as a % of baseline potential in neurons in slices of hippocampus from MeCP2 deficient mice treated with either saline or G-2-MePE (FIG. 23).

[2] = Pharmacokinetic studies, plasma half-life; type: in vivo; conditions: rat
Experimental: The ability of the rats to remember or to relearn the original platform location was tested four weeks after original training. This means that residual drug would have been washed out for a minimum of 7 days in the case of the 3-week pumps, and 21 days in the case of the 1-week pumps. The retention testing procedure was identical to that of acquisition. Pharmacokinetic studies indicate that the plasma concentration of subcutaneously administered G-2-MePE rose to a peak and then declined with an approximately first order kinetic pattern, with a plasma half-life (t ½) of between about 30 and 60 minutes. Thus, by the time the retention study was performed, at least 7 days after removal of the G-2-MePE containing minipumps, nearly all of the G-2-MePE had been cleared from the animals' circulation.

12-month old rats = assay: Morris water maze, spatial reference memory; type: in vivo, rat; conditions: 0.96 or 4.8 mg/day s.c. mini-osmotic pump, vs saline
Experimental: We used male Wistar rats 12, 8 or 4 months of age. The Morris water maze test was conducted using a black plastic pool filled to a depth of 25 cm with water colored black with a non-toxic dye. […] The platform remained in that position though the training. The experiment used extra-maze cues (i.e. objects in the room surrounding the pool) that the rats could use to navigate to the platform. Distinctive posters or paintings were hung on the walls. Furniture in the room was not moved during the testing period. The placement of the pool allowed the experimenter an easy access to it from all sides. The pool was emptied and refilled daily during testing, with water at 25° C.+/-2° C. Rats in each group were trained to swim to the submerged platform. The rats received six 60-second trials per day for four consecutive days. A trial began by placing the rat into the water facing the wall of the pool, at one of four start locations (north, south, east, west). The sequence of start locations was chosen pseudorandomly, so that the start location of any given trial was different from that of the previous trial, and no start location was used more than twice during daily training. […] The swim latency for each rat was recorded for each trial for each day of the acquisition and retention phases and changes between phases were examined using Analysis of Variance.

SMILES: C[C@@]1(C(=O)N[C@@H](CCC(=O)O)C(=O)O)CCCN1C(=O)CN [Example G-2-MePE, Glycyl-L-2-methylprolyl-L-glutamic acid] (HELM PEPTIDE1{G.[C[C@@]1(C(=O)[*:2])CCCN1[*:1]].E}$$$$V2.0)
- pattern of time spent in successive alleys (fmr1 knockout mice): reinstated the normal pattern of behavior
- slope of fEPSP (LTP) [1]: increased the slope
- half-life ([2]; in vivo, read-out: plasma half-life in vivo): ~30 min
- half-life ([2]; sc, subcutaneously administered, read-out: plasma half-life (t 1/2)): 30 to 60 min
- memory: time needed to reach the platform, retention phase (12-month old rats): improved memory

Reference: patent US20150224164A1, “TREATMENT OF AUTISM SPECTRUM DISORDERS USING GLYCYL-L-2-METHYLPROLYL-L-GLUMATIC ACID” (Neuren Pharmaceuticals Limited, priority 2013, published 2015)
